Read-outs that look alike come from different tables or passages of the source. A value given as a limit tells only on which side of the number the result lay.

What all share (format): cell-based, human
For one experiment, the system named is pERK, SW620 cells. In words: Phospho-ERK inhibition, AlphaLISA p-ERK 1/2, SW620. The note with it: Table D-2; for IC50: SW620 (KRAS-G12V); for pERK value in parentheses, % inhibition (Ymin): SW620, lowest point of IC50 curve. Here is the method:
(§1) All cancer cell lines (A375, A101D, A2058, RKO, HT29 SK-MEL 30, IPC298, HepG2, HCT-116, Lovo, SW620, SW480, NCI-H358, NCI-H2122, Calu-6, NCIH2087, NCIH1755, NCIH1666 and Mewo) were obtained from ATCC and cultured in RPM1-1640 medium (Gibco) supplemented with 5% heat inactivated fetal bovine serum (FBS, Wisent) at 37° C. under 5% CO2. Cells were maintained in T175 flasks (Greiner). They were passaged by removing the culture medium, washing once in 10 mL of room temperature Phosphate Buffered Saline (PBS; Wisent) and incubating at 37° C. with 2 mL of 0.05% Trypsin (Thermo-Fisher). Trypsin was then inactivated by adding complete growth medium and the cells were then replated in a T175 culture dish at the appropriate dilution. All cell lines were routinely tested for mycoplasma contamination. Tissue type and mutational status of each cell line can be found in Table B.
(c) Measurement of Phospho-ERK Inhibition in Cultivated Human Cancer Cell Lines by the AlphaLISA® SureFire® Ultra™ p-ERK 1/2 (Thr2O2/Tyr204)
AlphaLISA® SureFire® Ultra™ p-ERK 1/2 (Thr202/Tyr204) analysis was conducted on cells plated in 100 μL of complete RPMI-1640 growth medium in 96-well flat-bottomed transparent dishes (Costar) at a density indicated in Table C. Cells were maintained overnight at 37° C. under 5% CO2 before treatment with compounds' dilution series for one hour. The cell density in cells/cm^2 corresponds to cell number divided by the area of one well of a 96-well plate (0.143 cm^2).
In a dilution series 100 μL/well of test substance dilution prepared in complete RPMI-1640 growth media was added to the cells. The dilution series is selected so that ten concentrations cover a range from 10 μM to 0.33 nM. If necessary, the initial concentration of 10 μM is increased to 100 μM or lowered to 1 μM (as in the case of A375 and H1666 cells, which are generally more sensitive to the compounds) and further dilution is carried out accordingly. The final concentration of DMSO in the assay is set at 0.5%.
After treatment, media was removed, and cells were lysed in 50 μL of 1× AlphaScreen Ultra Lysis Buffer (Perkin Elmer). The AlphaLISA® SureFire® Ultra™ p-ERK 1/2 (Thr202/Tyr204) (PerkinElmer) reactions were performed with 5 μL of cell lysate according to the manufacturer's specifications in 384-well proxyplates (Perkin Elmer) followed by overnight incubation of the reactions at room temperature in a humidified chamber. After completion of the reactions, the signals were recorded on an EnVision plate reader (Perkin Elmer) using built in AlphaLISA® settings.
The effect of each compound dilution on the pERK signal was expressed in % inhibition and calculated as follows. An internal 100% inhibition control (1 μM trametinib, cat. No. HY-10999; MedChem Express; CAS No. 871700-17-3) was included in each plate and used as a measure of pERK background. First, the value obtained for trametinib was subtracted from each data point. The average of DMSO (vehicle) controls (set as 0% inhibition) was established and used to calculate % inhibition:
The ability of each compound to inhibit pERK signal was expressed as an IC50 value obtained by plotting the inhibition values for each data point of a dilution series and fitting the obtained curves using a log(agonist) versus response—variable slope (four parameters) function using GraphPadPrism (V7.0) or Dotmatics Screening Ultra platform.
When present, paradoxical pERK induction is inferred from the negative % inhibition values observed in the pERK IC50 curves of a compound.

For the next experiment, the system named is NCI-H358 cells. In words: Proliferation inhibition, CellTiter-Glo, NCI-H358. Conditions: Table D-2, NCI-H358 (KRAS-G12C), 3 days, read-out: Prolif. (proliferation EC50). Here is the method:
as §1
(§2) CellTiter-Glo® viability analysis was conducted on cells plated in 100 μL of complete RPMI-1640 growth medium in 96-well flat-bottomed white opaque plates (Greiner or Croning) at a density indicated in Table E (for each CCL, number of cells plated per well of a 96-well plate to perform the CellTiter-Glo® cell viability assay). The cell density in cells/cm^2 would correspond to cell number divided by the area of one well of a 96-well plate (0.32 cm^2). […]
(§3) After 3 days of incubation, the growth media were removed by aspiration and 60 μL of diluted CellTiter-Glo® reagent (10 μL CellTiter-Glo® reagent+50 μL of PBS) was added to each well. […] Luminescence signals were then acquired on a Synergy Neo2 plate reader (Biotek).
(§4) The effect of each compound dilution on the proliferation of cancer cell lines was expressed in % inhibition and calculated as follows. […]
(§5) The ability of each compound to inhibit proliferation was expressed as a EC50 value obtained by plotting the effect values for each data point of a dilution series and fitting the obtained curves using a log(agonist) versus response—variable slope (four parameters) function using GraphPadPrism (V7.0) or Dotmatics Screening Ultra platform.

The test system of another experiment is SW620 cells. In words: Proliferation inhibition, CellTiter-Glo, SW620. The note with it: Table D-2, SW620 (KRAS-G12V), 3 days, read-out: Prolif. (proliferation EC50). Here is the method:
as §1, §2, §3, §4, §5

For another experiment, the system named is NCIH2087 cells. In words: Proliferation inhibition, CellTiter-Glo, NCIH2087. The note with it: Table D-2, NCIH2087 (BRAF L597V; KRAS Q61K), 3 days, read-out: Prolif. (proliferation EC50). How it is done: as §1, §2, §3, §4, §5

Compound `Cc1ccc2c(Nc3cccc(Cl)c3F)nccc2c1NC(=O)c1csc2c(N)ncnc12` [Belvarafenib, reference compound] showed an IC50 in the experiment on pERK, SW620 cells (Homo sapiens, SW-620) of 30 to 300 nM. For the same compound, the “pERK value in parentheses, % inhibition (Ymin)” value (“pERK value … % inhibition (Ymin)” for short) with pERK, SW620 cells is “(−151) %”. Besides, the EC50 with NCI-H358 cells (Homo sapiens, 72 h) was 300 to 3000 nM; with SW620 cells (Homo sapiens, SW-620, 72 h), 300 to 3000 nM; in the experiment on NCIH2087 cells (Homo sapiens, NCI-H2087, 72 h), < 300 nM.
In the experiment on pERK, SW620 cells, `Cc1c(F)cccc1S(=O)(=O)Nc1ccc(F)c(Nc2ncnc3sc(-n4cc(C(=O)N5C6CCC5CN(C)C6)c5ccccc54)nc23)c1F` [Example 44] displayed an IC50 of 30 to 300 nM. The “pERK value … % inhibition (Ymin)” value with pERK, SW620 cells was “(3) %”. The EC50 in the experiment with NCI-H358 cells, in the experiment with SW620 cells and in the experiment on NCIH2087 cells was < 300 nM each time.
With `N#CC1(c2cccc3c2ncn3-c2nc3c(Nc4c(F)ccc(NS(=O)(=O)c5cccc(Cl)c5Cl)c4F)ncnc3s2)CC1` [Example 122], the IC50 in the experiment with pERK, SW620 cells was in the range of 30 to 300 nM. In addition, the “pERK value … % inhibition (Ymin)” value with pERK, SW620 cells is reported as “(−6) %”. Besides, the EC50 in the experiment on NCI-H358 cells, with SW620 cells and with NCIH2087 cells was < 300 nM throughout.

The values are drawn from patent US20260137697A1, “THIAZOLO[5,4-D]PYRIMIDINE COMPOUNDS, COMPOSITIONS COMPRISING THEM AND USES THEREOF” (University de Montreal, priority 2022, published 2026).
